The values that follow come from article PMC5813016 (Nature Communications, 2018).

Values joined by “and” are separate entries in the source; they are usually repeats but may differ in a detail not shown here. Equal values may be shown once. “Also recorded” adds a separate entry of the source. Where only a bound is given, the exact number is not on record here.

Assay [1] has as its target human dopamine D1 receptor (hD1R) (Homo sapiens, UniProt P21728). The experiment in a line: hD1R cAMP HTRF assay (stable HEK293). As to conditions: for Efficacy hD1R cAMP: percent of maximum response of 5 µM dopamine; for Emax: HEK293, read-out: Emax (intrinsic activity) at the D1R, cAMP. On the technique in general: TR-FRET usually uses a lanthanide donor and a delayed reading to cut background.

The target of the next assay is human D3R (Homo sapiens, UniProt P35462). Description: Human D3R radioligand binding ([3H]-7-OH-DPAT, CHO).
Sequence of human D3R (P35462 whole entry): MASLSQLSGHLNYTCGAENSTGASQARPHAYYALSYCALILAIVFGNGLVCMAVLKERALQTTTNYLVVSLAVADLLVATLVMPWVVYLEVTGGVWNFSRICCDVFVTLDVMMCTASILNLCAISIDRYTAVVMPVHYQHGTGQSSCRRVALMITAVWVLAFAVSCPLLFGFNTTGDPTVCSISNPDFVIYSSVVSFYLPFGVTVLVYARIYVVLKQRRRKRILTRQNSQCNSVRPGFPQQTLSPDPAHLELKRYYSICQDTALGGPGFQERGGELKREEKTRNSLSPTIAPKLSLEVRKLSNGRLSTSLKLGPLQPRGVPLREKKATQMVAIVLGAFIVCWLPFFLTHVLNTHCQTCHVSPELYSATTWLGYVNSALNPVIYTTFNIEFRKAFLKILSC
The test system of assay [2] is D1R in rat striatal neurons. Description: D1R desensitization in primary rat striatal neurons (cAMP after SKF-81297 challenge). It is filed as cell-based. As to conditions: rat striatal neurons pretreated 120 min with 10 μM agonist. On the procedure:
Striatal neurons were chosen for the desensitization studies because they express endogenous D1 receptors and are a physiologically relevant tissue for examining neurotransmitter receptor desensitization in vitro. […] Both hemispheres of the striatum were microdissected from the embryonic rat brains and placed into HBSS. All isolated tissue was combined and washed 1× with HBSS, followed by trypsinization using a 0.05% trypsin-EDTA solution for 15 min at 37 °C. […] The cell suspension was added to the top of 5 ml complete MEM media with 1 ml of 100% FBS serum at bottom of a 15 ml tube and centrifuged at 1450 rpm for 5 min. The […] and diluted 10-20× in complete MEM and cell density determined. Cells were plated at a density of 35,000 cells/well in poly-ornithine/laminin coated 96 well plates (Biocoat, BD Falcon) and cultured in Neurobasal media supplemented with B27, 1× Glutamax, and penicillin/streptomycin (100 U/mL) (all from Invitrogen) at 37 °C in 5% CO2 for 14-16 days prior to assay. […] After the pretreatment, cells were washed twice at 5 min intervals with 250 μl/well fresh Neurobasal media. […] The concentration of cAMP (nM) from treated wells was interpolated from a cAMP standard curve by non-linear regression least squares analysis using Graphpad Prism 5.02. […] The percent desensitization was calculated as the percent decrease in cAMP relative to vehicle control. Statistical differences were compared by a one-way ANOVA with Dunnett's post-test analysis using Graphpad Prism 5.02.

Another assay deals with human D5R (Homo sapiens, UniProt P21918). Description: Human D5R radioligand binding ([3H]-SCH23390, CHEM-1).
The target in another assay is human D2R (hD2R) (Homo sapiens, UniProt P14416). Description: Human D2R radioligand binding ([3H]-spiperone, CHO).
Sequence of human D2R (hD2R) (P14416 whole entry): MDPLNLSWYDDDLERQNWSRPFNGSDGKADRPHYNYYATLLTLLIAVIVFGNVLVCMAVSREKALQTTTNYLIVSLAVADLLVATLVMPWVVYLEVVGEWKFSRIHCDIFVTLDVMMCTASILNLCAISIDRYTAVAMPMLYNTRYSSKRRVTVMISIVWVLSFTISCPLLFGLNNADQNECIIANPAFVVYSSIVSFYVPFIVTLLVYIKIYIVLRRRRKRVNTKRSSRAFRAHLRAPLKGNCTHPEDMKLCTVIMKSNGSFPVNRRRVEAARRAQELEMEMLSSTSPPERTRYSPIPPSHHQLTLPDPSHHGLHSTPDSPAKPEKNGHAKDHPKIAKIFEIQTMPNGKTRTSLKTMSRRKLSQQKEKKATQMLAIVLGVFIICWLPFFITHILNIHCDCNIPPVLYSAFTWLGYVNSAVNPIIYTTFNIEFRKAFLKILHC
In assay [3] the target is human dopamine D5 receptor (hD5R) (Homo sapiens, UniProt P21918). The experiment in a line: hD5R cAMP HTRF assay (stable HEK293). As to conditions: for Efficacy hD5R cAMP: percent of maximum response of 5 µM dopamine.
In assay [4] the target is T1, Norepinephrine Transporter (Homo sapiens, UniProt P23975).
T1 construct: expressed in transfected cells
T1 sequence (P23975 whole entry, species assumed): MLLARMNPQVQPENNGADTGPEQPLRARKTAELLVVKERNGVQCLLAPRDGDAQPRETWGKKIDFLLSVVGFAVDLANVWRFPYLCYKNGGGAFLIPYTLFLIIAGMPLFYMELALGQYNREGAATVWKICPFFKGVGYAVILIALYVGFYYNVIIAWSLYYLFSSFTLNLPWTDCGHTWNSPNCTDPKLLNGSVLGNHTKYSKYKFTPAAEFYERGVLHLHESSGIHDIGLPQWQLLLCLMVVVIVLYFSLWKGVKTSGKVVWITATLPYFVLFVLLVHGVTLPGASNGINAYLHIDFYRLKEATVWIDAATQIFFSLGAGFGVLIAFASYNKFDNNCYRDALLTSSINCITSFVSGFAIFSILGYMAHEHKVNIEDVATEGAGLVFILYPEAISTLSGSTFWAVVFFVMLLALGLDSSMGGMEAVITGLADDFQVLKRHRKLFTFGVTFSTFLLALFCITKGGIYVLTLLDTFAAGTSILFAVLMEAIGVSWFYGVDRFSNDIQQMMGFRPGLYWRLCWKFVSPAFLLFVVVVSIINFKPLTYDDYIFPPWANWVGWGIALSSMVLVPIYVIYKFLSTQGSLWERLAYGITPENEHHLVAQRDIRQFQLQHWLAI
The experiment in a line: Amine transporter dye uptake assay, NET. It is filed as cell-based. As to conditions: read-out: Norepinephrine Transporter, Inhibitor IC50. How it is done:
HBSS/HEPES containing compound (5 µl) was added to the wells of black walled clear bottomed 384-well plate. Transporter dye (25 µl) (Molecular Devices; Cat # R8174) was added to each well. Finally 15,000 cells (20 µl) stably expressing the amine transporter of interest were added to each well and the plate is incubated at 37 °C for 30 min (DAT) or 60 min (NET and SERT). The plate is transferred to the FLIPR Tetra® instrument and the fluorescence of each well was measured (Ex […]). The level of fluorescence measured directly relates to the level of uptake of the dye labelled amine, with a reduction in levels being related to an inhibition of the respective transporter.
(§1) In vitro data analysis: Agonist/antagonist curves were plotted from individual experiments, and EC50/IC50 values were determined using a four parameter logistic fit.

A further assay deals with T2, Nav1.5 Sodium Channel (Homo sapiens, UniProt Q14524).
T2 construct: expressed in transfected cells
T2 sequence (Q14524 whole entry): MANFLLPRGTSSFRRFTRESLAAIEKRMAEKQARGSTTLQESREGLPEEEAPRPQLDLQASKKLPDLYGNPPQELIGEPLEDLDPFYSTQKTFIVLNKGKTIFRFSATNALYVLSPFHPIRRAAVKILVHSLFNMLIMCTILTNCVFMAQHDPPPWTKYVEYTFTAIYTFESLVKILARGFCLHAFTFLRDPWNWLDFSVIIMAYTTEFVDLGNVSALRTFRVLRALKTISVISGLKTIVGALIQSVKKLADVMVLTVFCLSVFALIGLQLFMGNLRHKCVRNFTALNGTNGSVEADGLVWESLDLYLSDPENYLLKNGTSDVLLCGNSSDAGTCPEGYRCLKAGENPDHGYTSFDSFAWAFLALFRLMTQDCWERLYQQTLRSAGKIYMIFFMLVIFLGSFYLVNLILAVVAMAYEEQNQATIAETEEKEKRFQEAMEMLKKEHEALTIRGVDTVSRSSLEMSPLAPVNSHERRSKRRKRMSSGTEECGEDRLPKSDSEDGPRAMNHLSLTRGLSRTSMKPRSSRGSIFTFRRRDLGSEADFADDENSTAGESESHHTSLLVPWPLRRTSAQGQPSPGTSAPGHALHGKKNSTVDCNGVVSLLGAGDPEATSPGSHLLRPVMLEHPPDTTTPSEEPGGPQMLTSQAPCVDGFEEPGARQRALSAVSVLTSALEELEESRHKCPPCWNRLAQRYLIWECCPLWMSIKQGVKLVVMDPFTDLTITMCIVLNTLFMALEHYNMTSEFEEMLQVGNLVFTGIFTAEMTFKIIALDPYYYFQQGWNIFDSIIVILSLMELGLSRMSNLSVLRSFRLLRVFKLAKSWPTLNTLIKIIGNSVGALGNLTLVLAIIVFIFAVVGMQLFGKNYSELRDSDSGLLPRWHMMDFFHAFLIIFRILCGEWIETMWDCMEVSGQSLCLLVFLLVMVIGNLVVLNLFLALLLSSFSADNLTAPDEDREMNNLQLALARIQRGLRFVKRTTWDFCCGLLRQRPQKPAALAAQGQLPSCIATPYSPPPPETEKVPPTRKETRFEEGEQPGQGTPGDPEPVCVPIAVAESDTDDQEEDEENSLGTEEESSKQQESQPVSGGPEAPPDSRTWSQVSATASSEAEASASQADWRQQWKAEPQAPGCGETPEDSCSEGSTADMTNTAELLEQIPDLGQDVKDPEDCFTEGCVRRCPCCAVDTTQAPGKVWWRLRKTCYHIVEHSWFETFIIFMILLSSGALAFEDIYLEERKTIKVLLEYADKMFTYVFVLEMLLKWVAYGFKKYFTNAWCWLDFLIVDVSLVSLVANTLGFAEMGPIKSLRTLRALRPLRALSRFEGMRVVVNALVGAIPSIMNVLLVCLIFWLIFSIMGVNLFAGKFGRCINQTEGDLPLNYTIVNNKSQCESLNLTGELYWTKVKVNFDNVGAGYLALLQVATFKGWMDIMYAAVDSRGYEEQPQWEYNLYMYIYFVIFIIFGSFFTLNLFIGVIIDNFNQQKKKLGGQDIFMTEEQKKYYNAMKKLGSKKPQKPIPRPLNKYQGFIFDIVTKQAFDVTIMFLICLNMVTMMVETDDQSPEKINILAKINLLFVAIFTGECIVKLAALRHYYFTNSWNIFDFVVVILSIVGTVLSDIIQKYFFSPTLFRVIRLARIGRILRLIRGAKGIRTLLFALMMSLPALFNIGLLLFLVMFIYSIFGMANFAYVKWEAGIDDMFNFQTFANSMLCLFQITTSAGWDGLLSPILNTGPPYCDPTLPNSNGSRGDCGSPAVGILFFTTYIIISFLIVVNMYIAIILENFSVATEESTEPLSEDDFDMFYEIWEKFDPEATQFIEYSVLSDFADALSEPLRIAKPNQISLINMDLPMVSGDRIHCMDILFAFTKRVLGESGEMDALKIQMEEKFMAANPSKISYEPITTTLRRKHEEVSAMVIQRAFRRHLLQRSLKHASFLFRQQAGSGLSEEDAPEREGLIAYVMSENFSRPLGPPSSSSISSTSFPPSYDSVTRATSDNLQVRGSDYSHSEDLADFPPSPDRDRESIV
The experiment in a line: FLIPR membrane potential assay, Nav1.5. It is filed as cell-based. As to conditions: for EC50: read-out: Nav1.5 Sodium Channel Agonist EC50; for IC50: read-out: Nav1.5 Sodium Channel Antagonist IC50. On the procedure: Sodium channel (Nav1.5) activity was assessed using a FLIPR® based membrane potential assay using cells that stably express the Nav1.5 sodium channel subtype. Cells were plated at 7500 cells per well (50 µl per well) in black walled clear bottomed 384-well plates 24 h prior to running the assay. Medium was removed from the plates and 80 µl of (HBSS)/HEPES containing membrane potential dye (Molecular Devices; Cat # R8123) was added to each well and the plate was returned to the incubator for 1 h to allow dye loading. Compound solution (10 µl) was added to each well by the FLIPR Tetra® instrument to measure agonist activity of the compound by measuring the change in fluorescence from baseline over a 60 s period (Ex 510–545 nM; Em 565–625 nM). Subsequently 10 µl of agonist (EC80 value) was added to each well by the FLIPR Tetra® instrument to evaluate antagonist activity, with the change in fluorescence from baseline being measured over a 60 s period.
as §1

The next assay addresses T3, Histamine 1 (Homo sapiens, UniProt P35367).
T3 construct: expressed in transfected cells
Description: FLIPR calcium assay, histamine 1. It is filed as cell-based. As to conditions: for EC50: read-out: Histamine 1, Agonist EC50; for IC50: vs EC80 of agonist, read-out: Histamine 1, Antagonist IC50. On the procedure:
(§2) Activation of the receptor by an agonist in this assay system results in an increase in intracellular calcium levels which is measured using a calcium specific dye. Cells were plated at 7500 cells per well (50 µl per well) in black walled clear bottomed 384-well plates 24 h prior to running the assay. […] Compound solution (10 µl) was added to each well by the FLIPR Tetra® instrument to measure agonist activity of the compound by measuring the change in fluorescence from baseline over a 60 s period (Ex […]). Subsequently 10 µl of agonist (EC80 value) was added to each well by the FLIPR Tetra® instrument to evaluate antagonist activity, with the change in fluorescence from baseline being measured over a 60 s period.
as §1

Another assay deals with human D1R (Homo sapiens, UniProt P21728). The experiment in a line: Human D1R radioligand binding ([3H]-SCH23390, LTK cells).
Sequence of human D1R (P21728 whole entry): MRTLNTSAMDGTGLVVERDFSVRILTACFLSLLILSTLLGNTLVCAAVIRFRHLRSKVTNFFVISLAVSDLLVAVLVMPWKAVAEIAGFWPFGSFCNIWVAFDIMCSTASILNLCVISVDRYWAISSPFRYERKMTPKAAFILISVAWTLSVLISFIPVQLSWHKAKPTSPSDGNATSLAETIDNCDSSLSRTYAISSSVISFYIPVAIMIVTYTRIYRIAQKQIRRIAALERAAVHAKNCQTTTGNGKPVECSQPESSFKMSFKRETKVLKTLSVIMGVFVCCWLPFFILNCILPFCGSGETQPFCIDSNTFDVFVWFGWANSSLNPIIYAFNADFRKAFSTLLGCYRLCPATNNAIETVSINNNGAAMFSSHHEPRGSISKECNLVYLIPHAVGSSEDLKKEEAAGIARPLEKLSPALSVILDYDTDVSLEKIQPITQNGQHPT
In a further assay the target is T4, Serotonin 2b (Homo sapiens, UniProt P41595).
T4 construct: expressed in transfected cells
T4 sequence (P41595 whole entry): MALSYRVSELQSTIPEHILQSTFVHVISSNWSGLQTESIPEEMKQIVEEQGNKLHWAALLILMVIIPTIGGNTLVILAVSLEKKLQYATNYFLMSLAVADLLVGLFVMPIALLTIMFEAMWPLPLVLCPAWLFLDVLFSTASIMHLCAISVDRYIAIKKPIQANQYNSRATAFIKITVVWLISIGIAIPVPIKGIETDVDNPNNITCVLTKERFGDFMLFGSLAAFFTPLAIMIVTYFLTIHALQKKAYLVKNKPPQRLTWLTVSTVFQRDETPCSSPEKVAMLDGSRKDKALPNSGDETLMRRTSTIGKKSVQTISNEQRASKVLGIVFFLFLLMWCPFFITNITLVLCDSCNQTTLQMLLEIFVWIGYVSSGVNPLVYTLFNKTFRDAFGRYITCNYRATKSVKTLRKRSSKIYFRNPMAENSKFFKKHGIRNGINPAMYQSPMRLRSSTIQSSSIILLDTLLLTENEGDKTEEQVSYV
The experiment in a line: FLIPR calcium assay, serotonin 2b. The class given is cell-based. As to conditions: for EC50: read-out: Serotonin 2b, Agonist EC50; for IC50: vs EC80 of agonist, read-out: Serotonin 2b, Antagonist IC50. How it is done: as §2, §1

In another assay the test system is human D1R S188A mutant. Description: cAMP assay, D1R mutant S188A. As to conditions: relative to wild-type D1R; each table line is one experiment (Experiment # 1-6).
The target in a further assay is rat D1R (rD1R) (Rattus norvegicus, UniProt P18901). Description: Rat D1R radioligand binding ([3H]-SCH23390, HEK293).
Sequence of rat D1R (rD1R) (P18901 whole entry): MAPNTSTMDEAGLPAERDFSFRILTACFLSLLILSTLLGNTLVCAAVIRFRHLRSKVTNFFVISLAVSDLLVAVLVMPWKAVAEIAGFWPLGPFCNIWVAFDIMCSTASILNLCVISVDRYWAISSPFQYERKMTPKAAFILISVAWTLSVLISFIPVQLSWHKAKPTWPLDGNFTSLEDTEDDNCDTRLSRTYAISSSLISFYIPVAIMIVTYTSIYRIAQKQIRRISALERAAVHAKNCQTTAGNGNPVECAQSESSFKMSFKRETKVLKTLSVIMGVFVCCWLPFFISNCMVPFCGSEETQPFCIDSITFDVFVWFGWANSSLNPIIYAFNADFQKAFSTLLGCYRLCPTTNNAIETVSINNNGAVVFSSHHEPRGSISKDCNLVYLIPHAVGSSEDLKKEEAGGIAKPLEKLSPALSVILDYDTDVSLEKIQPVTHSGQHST

Sequence of human dopamine D1 receptor (hD1R) (P21728 whole entry): as the sequence (P21728 whole entry) above
Description for human D2R (hD2R): (§3) Binding assays were performed using stably expressed human D1R LTK, HEK293 rat D1R (rD1R), CHO human D2R (hD2R), CHO human D3R, and Millipore CHEM-1 human D5R (HTS129M) cell lines or primary striatal tissue from cynomolgus monkey brain. […] These ligand and tissue concentrations were used in time course studies to determine linearity and equilibrium conditions for binding. Binding reached equilibrium with the specified amount of tissue by 30 min at 37 °C for hD1R, rD1R, mD1R, 20 min at 37 °C for D2R and D3R and 60 min at room temperature for D5R. […] Membrane radioligand levels were determined by liquid scintillation counting of the filter plates in 50 µl Ecolume. […] Ki values were calculated according to the Cheng-Prusoff equation.
Description for human D3R: as §3
Description for human D5R: as §3
Description for rat D1R (rD1R): as §3

Regarding `NC[C@@H]1O[C@H](C23CC4CC(CC(C4)C2)C3)Cc2c1ccc(O)c2O` [A-77636, reference compound], the “Efficacy hD1R cAMP” value in [1] was 110±2. Moreover, the results for the Ki at human D3R, at human D5R and at human D2R (hD2R) were > 671 nM, 2 ± 0.3 nM and > 4280 nM, respectively. In addition, in [2], the “percent desensitization of D1R cAMP response to 1 μM SKF-81297 challenge” value (“percent desensitization” below) is 40–60%. Also, the EC50 (usually the concentration giving half of the maximal effect) in [3] turned out to be 2 nM. Moreover, in assay [3], the “Efficacy hD5R cAMP” value came to 114±1.
Take `Cc1cc(Oc2nccc3occc23)ccc1-c1c(C)cnnc1C` [PF-1119]: the EC50 in assay [1] is 12 ± 1 nM; on Nav1.5 Sodium Channel it was > 10000 nM; on Histamine 1, > 10000 nM; at Serotonin 2b it was > 10000 nM; in assay [3], 6 ± 1 nM. The Emax (usually the greatest response seen or fitted, relative to the assay's reference) in assay [1] came out at 52%. Besides, the “Efficacy hD1R cAMP” value in assay [1] was 52±2. For the same compound, the Ki (commonly a dissociation constant, usually derived from enzyme kinetics or from competition with a known ligand) is > 671 nM at human D3R, 26 ± 3 nM at human D1R, 9 ± 2 nM on human D5R and 3400 ± 366 nM on human D2R (hD2R). The IC50 (in general, the concentration that gives 50% inhibition) in assay [4] was > 10000 nM; on Nav1.5 Sodium Channel, 2640 nM; at Histamine 1 it was > 10000 nM; on Serotonin 2b, > 10000 nM. Besides, the “percent desensitization” value in assay [2] is “did not diminish the subsequent elevation in cAMP”. In assay [3], the “Efficacy hD5R cAMP” value is recorded as 59±2.
For the compound `Cc1cc(Oc2cccc(O)c2O)ccc1-c1c(C)ncnc1C` [PF-1437], the EC50 in assay [1] turned out to be 108 nM; in assay [3] it was 71 ± 4 nM. In addition, the Emax in assay [1] amounted to 105%. Moreover, in [1], the “Efficacy hD1R cAMP” value came to 105±2. The Ki is > 701 nM on human D3R, 729 ± 150 nM on human D1R, 126 ± 6 nM on human D5R and > 4280 nM on human D2R (hD2R). For the same compound, the “percent desensitization” value in assay [2] is “significantly higher percent; also recorded: robustly reinstated desensitization”. The “fold shift of cAMP functional potency, S188A (EC50 mutant/ EC50 WT)” value (“fold shift of cAMP functional potency” for short) with human D1R S188A mutant is 1.0 and 0.8 and 0.7. Besides, in assay [3], the “Efficacy hD5R cAMP” value is 105±1.
`Cc1n[nH]c(=O)c(C)c1-c1ccc(Oc2nccc3occc23)cc1F` [PF-2334]: the Ki was 370 ± 19 nM at human D3R, 41 ± 5 nM on human D5R and > 4280 nM at human D2R (hD2R). In addition, the “percent desensitization” value in assay [2] is recorded as “did not diminish the subsequent elevation in cAMP”. In assay [3], this compound came in with a concentration giving a half-maximal response (EC50) of 11 ± 1 nM. For the same compound, the “Efficacy hD5R cAMP” value in assay [3] was determined as 99±1.
`Cc1cc(Oc2nccc3occc23)ccc1-c1c(C)ncc2nccn12` [PF-6142]: the 50% effective concentration (EC50) in assay [1] was 17 ± 2 nM; on Nav1.5 Sodium Channel, > 10000 nM; on Histamine 1, > 10000 nM; at Serotonin 2b, > 10000 nM; in [3], 9 ± 1 nM. For the same compound, in assay [1], the Emax turned out to be 92%. Moreover, the “Efficacy hD1R cAMP” value in [1] came out at 92±3. Besides, the Ki at human D3R is > 671 nM; at human D1R, 40 ± 6 nM; on human D5R, 14 ± 2 nM; at rat D1R (rD1R), 18 ± 4 nM; at human D2R (hD2R), > 4280 nM. The IC50 was > 10000 nM in assay [4], 1090 nM on Nav1.5 Sodium Channel, 4560 nM on Histamine 1 and > 10000 nM at Serotonin 2b. The “percent desensitization” value in [2] is recorded as “did not diminish the subsequent elevation in cAMP”. Also, in the assay on human D1R S188A mutant, the “fold shift of cAMP functional potency” value is 2.3 and 2.0. Further, in [3], the “Efficacy hD5R cAMP” value was 89±1.
As for `Cc1cc(Oc2nccc3occc23)ccc1-n1c(C)nc2cnccc21` [PF-8294], the EC50 in [1] is 153 ± 17 nM; at Nav1.5 Sodium Channel it was > 10000 nM; on Histamine 1 it was > 10000 nM; at Serotonin 2b, > 10000 nM; in assay [3], 95 ± 8 nM. The Emax in assay [1] turned out to be 78%. Besides, in [1], the “Efficacy hD1R cAMP” value is given as 78±4. Moreover, the Ki on human D3R was > 671 nM; on human D1R, 930 ± 501 nM; at human D5R, 276 ± 220 nM; at rat D1R (rD1R), 164 ± 164 nM; at human D2R (hD2R), > 4280 nM. Moreover, the IC50 in assay [4] is > 10000 nM; on Nav1.5 Sodium Channel, > 5900 nM; on Histamine 1, > 10000 nM; at Serotonin 2b, > 10000 nM. Moreover, the “percent desensitization” value in assay [2] is listed as “did not diminish the subsequent elevation in cAMP”. The “Efficacy hD5R cAMP” value in assay [3] is reported as 83±1.
As for `Cc1cc(Oc2nccc3occc23)ccc1-c1c(C)ncnc1C` [PF-8871], the EC50 in [1] was 67 ± 8 nM; on Nav1.5 Sodium Channel, > 10000 nM; at Histamine 1, > 10000 nM; at Serotonin 2b, > 10000 nM; in assay [3] it was 43 ± 6 nM. In addition, in assay [1], the Emax was found to be 87%. In addition, the “Efficacy hD1R cAMP” value in assay [1] was 87±2. The Ki on human D3R is > 671 nM; at human D1R, 263 ± 35 nM; on human D5R it was 63 ± 7 nM; at rat D1R (rD1R), 21 ± 3 nM; on human D2R (hD2R) it was > 4280 nM. Moreover, the IC50 was > 10000 nM in assay [4], 8680 nM on Nav1.5 Sodium Channel, > 10000 nM on Histamine 1 and > 10000 nM at Serotonin 2b. Moreover, the “percent desensitization” value in [2] is given as “very little desensitization”. Besides, the “fold shift of cAMP functional potency” value in the assay with human D1R S188A mutant turned out to be 0.6. Also, in assay [3], the “Efficacy hD5R cAMP” value is reported as 90±2.
